Reference: patent US8507411B2, “Neoglycorandomization and digitoxin analogs” (priority 2004, dated 2013)
Read-outs that look alike come from different tables or passages of the source.

Columns and labels:
[1] = tested on: NCI-H460; test: High-throughput calcein AM cytotoxicity assay, NCI-H460; format: cell-based, human; details: NCI-H460 cells
Excerpt: (§1) Standard errors are depicted with error bars.

[2] = tested on: Hep3B; test: High-throughput calcein AM cytotoxicity assay, Hep3B; format: cell-based, human; details: Hep 3B cells
Excerpt: as §1

[3] = tested on: Du145; test: High-throughput calcein AM cytotoxicity assay, Du145; format: cell-based, human; details: Du145 cells
Excerpt: as §1

[4] = tested on: NmuMG; test: cells; format: cell-based, mouse
Excerpt: (§2) In the assay, live cells were distinguished by the presence of a ubiquitous intracellular enzymatic activity which converts the non-fluorescent cell-permeable molecule calcein AM to the intensely fluorescent molecule calcein, which is retained within live cells. The IC50 value for each library member represents at least six replicates of dose-response experiments conducted over five concentrations using two-fold dilutions. […] Standard errors are depicted with error bars. Numerical values and corresponding error values can be found in Table 4. Du145: […]; MCF7: human breast carcinoma; HCT-116: human colon carcinoma, Hep3B: human liver carcinoma; SF-268: human CNS glioblastoma; SK-OV-3: human ovary adenocarcinoma; NCI-H460: human lung carcinoma; A549: human lung adenocarcinoma; NCI/ADR-RES: human breast carcinoma; NmuMG: mouse mammary normal epithelial.
(§3) Cell Culture: All cell lines except NmuMG were maintained in RPMI 1640 medium from InVitrogen (Cat No. 11875-085) supplemented with 10% w/v fetal bovine serum (FBS) from ICN (Cat No. 2916154) and penicillin-streptomycin (PS) (100 U/mL and 100 μg/mL) from InVitrogen (Cat No. 15140-122). NmuMG cells were maintained in DMEM medium from InVitrogen (Cat No. 11965-084) supplemented with 10% w/v fetal bovine serum (FBS) from ICN (Cat No. 2916154), 10 μg/ml insulin (InVitrogen Cat No 12585-014), and penicillin-streptomycin (PS) (100 U/mL and 100 μg/mL) from InVitrogen (Cat No. 15140-122). Cells were harvested by trypsinization using 0.25% w/v trypsin and 0.1% w/v EDTA from InVitrogen (Cat No. 15-050-057) and then counted in a hemocytometer in duplicate with better than 10% agreement in field counts. Cells were plated at a cell density of 10,000-15,000 cells/well of each Corning Costar 96-well black tissue culture treated microtiter plate (Fisher Cat No. 07-200-627). Cells were grown for 1 h at 37° C., with 5% CO2 in a humidified incubator to allow cell attachment to occur before compound addition.
(§4) Library Member Handling and Preparation for Cytotoxicity Assays: Library members were stored at −20° C. under dessicating conditions before the assay. Library member stocks (100×) were prepared in Corning Costar polypropylene 96-well V-bottom polypropylene microtiter plates (Fisher Cat No. 07-200-695). Five serial 1:2 dilutions were made with anhydrous DMSO at 100× the final concentration used in the assay.
(§5) Library Member Addition: The library member-containing plates were diluted 1:10 with complete cell culture media. The 10× stocks (10 μL) were added to the attached cells using a Biomek FX liquid handler (Beckman-Coulter). Library member stocks (10 μL) were added to 90 μL of cells in each plate to insure full mixing of stocks with culture media using a Beckman FX liquid handler with 96-well head.
(§6) Determination of Cytotoxicity: Cells were incubated with the library members for 72 h before fluorescence reading. Test plates were removed from the incubator and washed 1× in sterile PBS to remove serum containing calcium esterases. Calcein AM reagent (30 μL, […]) was added and the cells were incubated for 30 min at 37° C. Plates were read for emission using a fluorescein filter (excitation 485 nm, emission 535 nm).
(§7) IC50 Calculation: For each library member, at least six dose response experiments were conducted. […] To calculate IC50, percent inhibitions were plotted as a function of log [concentration] and then fit to a four-parameter logistic model that allowed for a variable Hill slope using XLfit 4.1.
(§8) Cytotoxicity Assays. All cell lines except NmuMG were maintained in RPMI 1640 medium supplemented with 10% w/v fetal bovine serum (FBS) and penicillin-streptomycin (PS) (100 U/mL and 100 μg/mL).

[5] = tested on: SF-268; test: cells; format: cell-based, human; details: SF-268 cells
Excerpt: as §2, §3, §4, §5, §6, §7, §8

[6] = tested on: SK-OV-3; test: cells; format: cell-based, human; details: SK-OV-3 cells
Excerpt: as §2, §3, §4, §5, §6, §7, §8

[7] = tested on: NCI/ADR-RES; test: cells; format: cell-based, human; details: NCI/ADR-RES cells
Excerpt: as §2, §3, §4, §5, §6, §7, §8

[8] = tested on: HCT-116; test: High-throughput calcein AM cytotoxicity assay, HCT-116; format: cell-based, human; details: HCT-116 cells
Excerpt: as §1

[9] = tested on: A549; test: High-throughput calcein AM cytotoxicity assay, A549; format: cell-based, human; details: A549 cells
Excerpt: as §1

[10] = tested on: MCF7; test: High-throughput calcein AM cytotoxicity assay, MCF7; format: cell-based, human; details: MCF7 cells
Excerpt: as §1

[11] = NmuMG cells (mouse mammary normal epithelial control line), read-out: IC50
[12] = NmuMG mouse mammary normal epithelial control line, read-out: IC50, NmuMG

| Compound | IC50 ([1]; read-out: IC50) [µM] | IC50 ([2]; read-out: IC50) [µM] | IC50 ([3]; read-out: IC50) [µM] | IC50 [4, 11] [µM] | IC50 ([5]; read-out: IC50) [µM] | IC50 ([6]; read-out: IC50) [µM] | IC50 ([7]; read-out: IC50) [µM] | IC50 ([8]; read-out: IC50) [µM] | IC50 ([9]; read-out: IC50) [µM] | IC50 ([10]; read-out: IC50) [µM] | IC50 ([1]; read-out: IC50, NCI-H460) [µM] | IC50 ([2]; read-out: IC50, Hep 3B) [µM] | IC50 ([3]; read-out: IC50, Du145) [µM] | IC50 [4, 12] [µM] | IC50 ([5]; read-out: IC50, SF-268) [µM] | IC50 ([6]; read-out: IC50, SK-OV-3) [µM] | IC50 ([7]; read-out: IC50, NCI/ADR-RES) [µM] | IC50 ([8]; read-out: IC50, HCT-116) [µM] | IC50 ([9]; read-out: IC50, A549) [µM] | IC50 ([10]; read-out: IC50, MCF7) [µM] |
| --- | --- | --- | --- | --- | --- | --- | --- | --- | --- | --- | --- | --- | --- | --- | --- | --- | --- | --- | --- | --- |
| CON(C1CCC2(C)C(CCC3C2CCC2(C)C(C4=CC(=O)OC4)CCC32O)C1)C1OC(COC2OC(CO)C(O)C(O)C2O)C(O)C(O)C1O (stereo not drawn) [35α, melibioside] | > 25 | > 25 | > 25 | > 25 | > 25 | > 25 | > 25 | > 25 | > 25 | > 25 | – | – | – | – | – | – | – | – | – | – |
| CON([C@H]1CC[C@@]2(C)[C@H](CC[C@@H]3[C@@H]2CC[C@]2(C)[C@@H](C4=CC(=O)OC4)CC[C@]32O)C1)[C@@H]1C[C@@](C)(O)[C@@H](O)[C@H](C)O1 [30β, L-mycaroside] | – | – | – | – | – | – | – | – | – | – | 0.19 | 0.6 | 1.1 | > 25 | 1.1 | 1.1 | 0.35 | 0.6 | 0.6 | 1.8 |
| CON([C@H]1CC[C@@]2(C)[C@H](CC[C@@H]3[C@@H]2CC[C@]2(C)[C@@H](C4=CC(=O)OC4)CC[C@]32O)C1)[C@@H]1O[C@H](CO)[C@@H](O)[C@@H](O)[C@H]1O [18β, D-alloside] | – | – | – | – | – | – | – | – | – | – | 3.2 | 3.3 | 2.2 | 3.1 | 3.5 | 6.4 | 0.8 | 6 | 2 | 6.8 |
| CON([C@H]1CC[C@@]2(C)[C@H](CC[C@@H]3[C@@H]2CC[C@]2(C)[C@@H](C4=CC(=O)OC4)CC[C@]32O)C1)[C@@H]1O[C@H](CO)[C@@H](O)[C@@H](O)[C@@H]1O [20β, D-altroside] | – | – | – | – | – | – | – | – | – | – | 0.62 | 0.35 | 1.2 | 0.9 | 1.1 | 1.1 | 0.9 | 1.1 | 0.54 | 1.5 |
| CON(C1CCC2(C)C(CCC3C2CCC2(C)C(C4=CC(=O)OC4)CCC32O)C1)C1OC(CO)C(O)C(O)C1O [39β, L-taloside] | – | – | – | – | – | – | – | – | – | – | 1.1 | 0.96 | 0.76 | 0.5 | 1.4 | 1.5 | 1 | 2.3 | 0.89 | 1.8 |
| CON(C1CCC2(C)C(CCC3C2CCC2(C)C(C4=CC(=O)OC4)CCC32O)C1)C1OCC(O)C(O)C1O [14α, L-lyxoside] | – | – | – | – | – | – | – | – | – | – | > 25 | > 25 | > 25 | > 25 | > 25 | > 25 | > 25 | > 25 | > 25 | > 25 |
| CON(C1CCC2(C)C(CCC3C2CCC2(C)C(C4=CC(=O)OC4)CCC32O)C1)C1OC(C)C(O)C(O)C1O [11α, 6-deoxy-D-glucoside] | – | – | – | – | – | – | – | – | – | – | > 25 | > 25 | > 25 | > 25 | > 25 | > 25 | > 25 | > 25 | > 25 | > 25 |
| CON(C1CCC2(C)C(CCC3C2CCC2(C)C(C4=CC(=O)OC4)CCC32O)C1)C1OC(C)C(O)C(O)C1O [11β, 6-deoxy-D-glucoside] | – | – | – | – | – | – | – | – | – | – | 1 | 4.4 | 6 | > 25 | 2.5 | 4 | 0.95 | 2.3 | 1.2 | 1.9 |
| CON(C1CCC2(C)C(CCC3C2CCC2(C)C(C4=CC(=O)OC4)CCC32O)C1)C1OC(CO)C(O)C(O)C1O [22α, D-galactoside] | – | – | – | – | – | – | – | – | – | – | > 25 | > 25 | > 25 | > 25 | > 25 | > 25 | > 25 | > 25 | > 25 | > 25 |
| CON(C1CCC2(C)C(CCC3C2CCC2(C)C(C4=CC(=O)OC4)CCC32O)C1)C1CC(O)C(O)C(CO)O1 [9α, 2-deoxy-D-galactoside] | – | – | – | – | – | – | – | – | – | – | > 25 | > 25 | > 25 | > 25 | > 25 | > 25 | > 25 | > 25 | > 25 | > 25 |
| CON([C@H]1CC[C@@]2(C)[C@H](CC[C@@H]3[C@@H]2CC[C@]2(C)[C@@H](C4=CC(=O)OC4)CC[C@]32O)C1)[C@@H]1O[C@H](CF)[C@@H](O)[C@H](O)[C@H]1O [13β, 6-deoxy-6-fluoro-D-glucoside] | – | – | – | – | – | – | – | – | – | – | 1.4 | 4.6 | 5 | > 25 | 4.7 | 3.4 | 1.1 | 4.8 | 2 | 6.2 |
| L-rhamnoside [16α] | – | – | – | – | – | – | – | – | – | – | > 25 | > 25 | > 25 | > 25 | > 25 | > 25 | > 25 | > 25 | > 25 | > 25 |
| CON(C1CCC2(C)C(CCC3C2CCC2(C)C(C4=CC(=O)OC4)CCC32O)C1)C1OC(CO)C(OC2OC(CO)C(O)C(O)C2O)C(O)C1O (stereo not drawn) [36α, lactoside] | > 25 | > 25 | > 25 | > 25 | > 25 | > 25 | > 25 | > 25 | > 25 | > 25 | – | – | – | – | – | – | – | – | – | – |
| CON(C1CCC2(C)C(CCC3C2CCC2(C)C(C4=CC(=O)OC4)CCC32O)C1)C1OC(CO)C(O)C(O)C1F [12α, 2-deoxy-2-fluoro-D-glucoside] | – | – | – | – | – | – | – | – | – | – | > 25 | > 25 | > 25 | > 25 | > 25 | > 25 | > 25 | > 25 | > 25 | > 25 |
| CON(C1CCC2(C)C(CCC3C2CCC2(C)C(C4=CC(=O)OC4)CCC32O)C1)C1OC(C)C(O)C(O)C1O [8α, D-fucoside] | – | – | – | – | – | – | – | – | – | – | > 25 | > 25 | > 25 | > 25 | > 25 | > 25 | > 25 | > 25 | > 25 | > 25 |
